Molecules are shown by their SMILES. “And” between values parts separate entries of the source, which are not always exact repeats. Equal values may be shown once. Records with an inconclusive call do not appear.

For this test, the system named is Lewis lung carcinoma i.m., BDF1 mice, T/C %. Briefly: NCI In Vivo Anticancer Drug Screen. Data for tumor model Lewis Lung Carcinoma (intramuscular) in B6D2F1 (BDF1) mice. The gist of the method: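 Tumour-bearing mice were dosed with compound, and either their survival or their tumour size was measured. Results were expressed relative to vehicle-treated controls as T/C.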

[1] abbreviates: endpoint: mean tumor weight (est.), dose: 0.25 mg/kg/injection, schedule: Q01DX011 (ip), vehicle: saline, higher = larger tumour.
Setting [2] is: endpoint: mean tumor weight (est.), dose: 0.5 mg/kg/injection, schedule: Q01DX011 (ip), vehicle: saline, higher = larger tumour.
Where [3] appears, read: endpoint: mean tumor weight (est.), dose: 1.0 mg/kg/injection, schedule: Q01DX011 (ip), vehicle: saline, higher = larger tumour.
The mark [4] stands for this setting: endpoint: median survival time, dose: 0.25 mg/kg/injection, schedule: Q01DX011 (ip), vehicle: saline, higher = longer survival.
[5] abbreviates: endpoint: median survival time, dose: 0.5 mg/kg/injection, schedule: Q01DX011 (ip), vehicle: saline, higher = longer survival.
[6] abbreviates: endpoint: median survival time, dose: 1.0 mg/kg/injection, schedule: Q01DX011 (ip), vehicle: saline, higher = longer survival.
[7] abbreviates: endpoint: median survival time, dose: 4.0 mg/kg/injection, schedule: Q01DX011 (ip), vehicle: saline, higher = longer survival.

`COc1cc2c(c(OC)c1OC)-c1ccc(OC)c(=O)cc1[C@@H](NC=O)CC2`: the T/C by setting is: under setting [1], 90 % of control; under setting [2], 73 % of control; under setting [3], 49 % of control; under setting [4], 90 % of control; under setting [5], 116 % of control; under setting [6], 88 % of control.

For the molecule `Cc1cccc2cc3c(ccc4ccccc43)c[n+]12`, the T/C is 91 % of control under setting [3]; 87 % of control (endpoint: mean tumor weight (est.), dose: 2.0 mg/kg/injection, schedule: Q01DX011 (ip), vehicle: saline, higher = larger tumour); 83 % of control (endpoint: mean tumor weight (est.), dose: 4.0 mg/kg/injection, schedule: Q01DX011 (ip), vehicle: saline, higher = larger tumour); 46 % of control (endpoint: mean tumor weight (est.), dose: 8.0 mg/kg/injection, schedule: Q01DX011 (ip), vehicle: saline, higher = larger tumour); 98 % of control under setting [6]; 101 % of control (endpoint: median survival time, dose: 2.0 mg/kg/injection, schedule: Q01DX011 (ip), vehicle: saline, higher = longer survival). Further, the T/C by setting is: under setting [7], 98 % of control; (endpoint: median survival time, dose: 8.0 mg/kg/injection, schedule: Q01DX011 (ip), vehicle: saline, higher = longer survival) 121 % of control.

`O=NN(CCCl)C(=O)NC1CCCCC1`: the T/C (endpoint: mean tumor weight, dose: 23.0 mg/kg/injection, schedule: Q01DX001 (sc), vehicle: saline, higher = larger tumour) was 61 % of control; the T/C (endpoint: mean tumor weight, dose: 39.0 mg/kg/injection, schedule: Q01DX001 (sc), vehicle: saline, higher = larger tumour) was 40 % of control; the T/C (endpoint: mean tumor weight, dose: 65.0 mg/kg/injection, schedule: Q01DX001 (sc), vehicle: saline, higher = larger tumour) is 30 % of control; the T/C (endpoint: mean tumor weight, dose: 108.0 mg/kg/injection, schedule: Q01DX001 (sc), vehicle: saline, higher = larger tumour) is 30 % of control; the T/C (endpoint: median survival time, dose: 4.0 mg/kg/injection, schedule: Q01DX011 (ip), vehicle: saline + alcohol, higher = longer survival) was 92 % of control; the T/C (endpoint: median survival time, dose: 4.0 mg/kg/injection, schedule: Q01DX011 (ip), vehicle: saline with Tween-80, higher = longer survival) was 105 % of control. In addition, the T/C reads like this: (endpoint: median survival time, dose: 8.0 mg/kg/injection, schedule: Q01DX011 (ip), vehicle: saline + alcohol, higher = longer survival) 92 % of control; (endpoint: median survival time, dose: 14.0 mg/kg/injection, schedule: Q01DX001 (ip), vehicle: saline, higher = longer survival) 108 % of control; (endpoint: median survival time, dose: 16.0 mg/kg/injection, schedule: Q01DX012 (ip), vehicle: saline + alcohol, higher = longer survival) 87 % of control; (endpoint: median survival time, dose: 23.0 mg/kg/injection, schedule: Q01DX001 (ip), vehicle: saline, higher = longer survival) 121 % of control; (endpoint: median survival time, dose: 23.0 mg/kg/injection, schedule: Q07DX003 (ip), vehicle: saline, higher = longer survival) 87 % of control; (endpoint: median survival time, dose: 39.0 mg/kg/injection, schedule: Q01DX001 (sc), vehicle: saline, higher = longer survival) 185 % of control. Moreover, the T/C was 120 % of control (endpoint: median survival time, dose: 39.0 mg/kg/injection, schedule: Q07DX003 (ip), vehicle: saline, higher = longer survival); 34 % of control (endpoint: median survival time, dose: 65.0 mg/kg/injection, schedule: Q01DX001 (ip), vehicle: saline, higher = longer survival); 191 % of control (endpoint: median survival time, dose: 65.0 mg/kg/injection, schedule: Q01DX001 (sc), vehicle: saline, higher = longer survival); 25 % of control (endpoint: median survival time, dose: 108.0 mg/kg/injection, schedule: Q01DX001 (ip), vehicle: saline, higher = longer survival); 166 % of control (endpoint: median survival time, dose: 108.0 mg/kg/injection, schedule: Q01DX001 (sc), vehicle: saline, higher = longer survival).

Consider `CCN1/C(=C/C=C/c2oc3ccccc3[n+]2CC)Oc2ccccc21`, for which the T/C was 87 % of control (endpoint: mean tumor weight (est.), dose: 3.7 micrograms/kg/injection, schedule: Q01DX011 (ip), vehicle: saline, higher = larger tumour); 99 % of control (endpoint: mean tumor weight (est.), dose: 75.0 micrograms/kg/injection, schedule: Q01DX011 (ip), vehicle: saline, higher = larger tumour); 103 % of control (endpoint: mean tumor weight (est.), dose: 150.0 micrograms/kg/injection, schedule: Q01DX011 (ip), vehicle: saline, higher = larger tumour); 86 % of control (endpoint: mean tumor weight (est.), dose: 300.0 micrograms/kg/injection, schedule: Q01DX011 (ip), vehicle: saline, higher = larger tumour); 93 % of control (endpoint: median survival time, dose: 37.5 micrograms/kg/injection, schedule: Q01DX011 (ip), vehicle: saline, higher = longer survival); 87 % of control (endpoint: median survival time, dose: 300.0 micrograms/kg/injection, schedule: Q01DX011 (ip), vehicle: saline, higher = longer survival).

In the case of `CCCCCCCCCCCC(c1ccccc1)[N+](C)(C)Cc1ccccc1` (centres undefined), the T/C was 80 % of control under setting [1]; 70 % of control under setting [2]; 61 % of control under setting [3]; 87 % of control under setting [4]; 91 % of control under setting [5]; 120 % of control under setting [6].

As to `CO[C@@]12[C@H](COC(N)=O)C3=C(C(=O)C(C)=C(N)C3=O)N1C[C@@H]1N[C@@H]12`, the T/C is 101 % of control (endpoint: mean tumor weight, dose: 0.5 mg/kg/injection, schedule: Q01DX005 (ip), vehicle: other, higher = larger tumour); 82 % of control (endpoint: mean tumor weight, dose: 1.0 mg/kg/injection, schedule: Q01DX005 (ip), vehicle: other, higher = larger tumour); 75 % of control (endpoint: mean tumor weight, dose: 2.0 mg/kg/injection, schedule: Q01DX005 (ip), vehicle: other, higher = larger tumour); 86 % of control and 112 % of control (endpoint: median survival time, dose: 0.25 mg/kg/injection, schedule: Q01DX009 (ip), vehicle: Klucel (hydroxypropylcellulose) (HPC), higher = longer survival); 112 % of control under setting [4]; 90 % of control (endpoint: median survival time, dose: 0.5 mg/kg/injection, schedule: Q01DX005 (ip), vehicle: other, higher = longer survival). The T/C (endpoint: median survival time, dose: 0.5 mg/kg/injection, schedule: Q01DX005 (ip), vehicle: saline, higher = longer survival) was 107 % of control; the T/C (endpoint: median survival time, dose: 0.5 mg/kg/injection, schedule: Q01DX009 (ip), vehicle: Klucel (hydroxypropylcellulose) (HPC), higher = longer survival) is 101 % of control and 110 % of control; the T/C under setting [5] was 114 % of control; the T/C (endpoint: median survival time, dose: 1.0 mg/kg/injection, schedule: Q01DX005 (ip), vehicle: saline, higher = longer survival) was 90 % of control; the T/C (endpoint: median survival time, dose: 1.0 mg/kg/injection, schedule: Q01DX009 (ip), vehicle: Klucel (hydroxypropylcellulose) (HPC), higher = longer survival) is 97 % of control; the T/C (endpoint: median survival time, dose: 1.0 mg/kg/injection, schedule: Q01DX011 (ip), vehicle: water, higher = longer survival) is 86 % of control. For the same molecule, the T/C runs as follows: (endpoint: median survival time, dose: 2.0 mg/kg/injection, schedule: Q01DX005 (ip), vehicle: other, higher = longer survival) 114 % of control; (endpoint: median tumor weight (est.), dose: 0.5 mg/kg/injection, schedule: Q01DX005 (ip), vehicle: saline, higher = larger tumour) 64 % of control; (endpoint: median tumor weight (est.), dose: 1.0 mg/kg/injection, schedule: Q01DX005 (ip), vehicle: saline, higher = larger tumour) 78 % of control.

As for `Cc1ccc(NC(=O)N(CCCl)N=O)cc1C`, the T/C runs as follows: (endpoint: median survival time, dose: 8.4 mg/kg/injection, schedule: Q07DX003 (ip), vehicle: Klucel (hydroxypropylcellulose) (HPC), higher = longer survival) 106 % of control; (endpoint: median survival time, dose: 14.0 mg/kg/injection, schedule: Q07DX003 (ip), vehicle: Klucel (hydroxypropylcellulose) (HPC), higher = longer survival) 91 % of control; (endpoint: median survival time, dose: 23.0 mg/kg/injection, schedule: Q07DX003 (ip), vehicle: Klucel (hydroxypropylcellulose) (HPC), higher = longer survival) 97 % of control.

As to `CS(=O)(=O)OCCCCOS(C)(=O)=O`, the T/C is 88 % of control (endpoint: mean tumor weight, dose: 12.5 mg/kg/injection, schedule: Q01DX011 (ip), vehicle: Klucel (hydroxypropylcellulose) (HPC), higher = larger tumour); 109 % of control (endpoint: mean tumor weight, dose: 25.0 mg/kg/injection, schedule: Q01DX011 (ip), vehicle: Klucel (hydroxypropylcellulose) (HPC), higher = larger tumour); 89 % of control (endpoint: median survival time, dose: 12.5 mg/kg/injection, schedule: Q01DX011 (ip), vehicle: Klucel (hydroxypropylcellulose) (HPC), higher = longer survival).

Take `O=C(CBr)c1ccc(I)cc1`: the T/C (endpoint: median survival time, dose: 1.25 mg/kg/injection, schedule: Q01DX011 (ip), vehicle: saline with Tween-80, higher = longer survival) was 102 % of control; the T/C (endpoint: median survival time, dose: 2.5 mg/kg/injection, schedule: Q01DX011 (ip), vehicle: saline with Tween-80, higher = longer survival) was 86 % of control; the T/C (endpoint: median survival time, dose: 5.0 mg/kg/injection, schedule: Q01DX011 (ip), vehicle: saline with Tween-80, higher = longer survival) was 89 % of control; the T/C (endpoint: median survival time, dose: 10.0 mg/kg/injection, schedule: Q01DX011 (ip), vehicle: saline with Tween-80, higher = longer survival) was 104 % of control.

Consider `FC(F)c1nc2nc(Cl)c(Cl)nc2[nH]1`, for which the T/C runs as follows: under setting [7], 92 % of control; (endpoint: median survival time, dose: 64.0 mg/kg/injection, schedule: Q01DX011 (ip), vehicle: saline, higher = longer survival) 96 % of control.

On to `CCCCC/C(C)=N\Nc1ccccn1`, for which the T/C is 91 % of control (endpoint: mean tumor weight (est.), dose: 12.5 mg/kg/injection, schedule: Q01DX011 (ip), vehicle: saline with Tween-80, higher = larger tumour); 88 % of control (endpoint: mean tumor weight (est.), dose: 25.0 mg/kg/injection, schedule: Q01DX011 (ip), vehicle: saline with Tween-80, higher = larger tumour); 80 % of control (endpoint: mean tumor weight (est.), dose: 50.0 mg/kg/injection, schedule: Q01DX011 (ip), vehicle: saline with Tween-80, higher = larger tumour); 98 % of control (endpoint: median survival time, dose: 25.0 mg/kg/injection, schedule: Q01DX011 (ip), vehicle: saline with Tween-80, higher = longer survival); 98 % of control (endpoint: median survival time, dose: 50.0 mg/kg/injection, schedule: Q01DX011 (ip), vehicle: saline with Tween-80, higher = longer survival).

Take `COc1c2c([n+](C)c3c(OC)cccc13)OC(C(C)C)C2` (centres undefined): the T/C is 85 % of control under setting [1], 82 % of control under setting [2], 90 % of control under setting [4] and 101 % of control under setting [5].

These data come from PubChem BioAssay AID272 (DTP/NCI, 2004).
